Laboratory results: patent US20220125771A1, “S[…], ANALOGUES THEREOF, AND METHODS USING SAME” (priority 2019, published 2022)

Tested on: HBsAg in HepG2.2.15 cells
Assay: HBsAg Assay: inhibition of HBsAg in HepG2.2.15 cells (CLIA immunoassay of supernatant)
Assay type: cell-based, hepatitis B virus
Settings: read-out: sAg EC50; HepG2.2.15 cells; supernatant collected at day 6 after exposure of compounds; final DMSO 0.5%
Procedure: Inhibition of HBsAg was determined in HepG2.2.15 cells. Cells were maintained in culture medium containing 10% fetal calf serum, […], Glutamine, penicillin/streptomycin. Cells were seeded in 96-well collagen-coated plate at a density of 30,000 cells/well. Serially diluted compounds were added to cells next day at the final DMSO concentration of 0.5%. Cells were incubated with compounds for 2-3 days, after which medium was removed. Fresh medium containing compounds was added to cells for additional 3-4 days. At day 6 after exposure of compounds, supernatant was collected, the HBsAg immunoassay (microplate-based chemiluminescence immunoassay kits, CLIA, Autobio Diagnosics Co., Zhengzhou, China, Catalog #CL0310-2) was used to determine the level of HBsAg according to manufactory instruction. Dose-response curves were generated and the EC50 value (effective concentrations that achieved 50% inhibitory effect) were determined using XLfit software. In addition, cells were seeded at a density of 5,000 cells/well for determination of cell viability in the presence and absence of compounds by using CellTiter-Glo reagent (Promega). Tables 1-3 show EC50 values obtained by the HBsAg assay for selected compounds.

In order of falling EC50:
1. CC(C)(C)C1Cc2c(nc3c(OC(F)F)cccn23)-c2[nH]c(=O)c(C(=O)O)cc21 (single isomer, unassigned) [Example 11, 5-(tert-Butyl)-11-(difluoromethoxy)-2-oxo-1,2,5,6-tetrahydropyrido[2′,1′:2,3]imidazo[4,5-h]quinoline-3-carboxylic Acid]  27000 nM
2. COc1cccn2c3c(nc12)-c1[nH]c(=O)c(C(=O)O)cc1C(C(C)C)C3 (single isomer, unassigned) [Example 17, 5-Isopropyl-11-methoxy-2-oxo-1,2,5,6-tetrahydropyrido[2′,1′:2,3]imidazo[4,5-h]quinoline-3-carboxylic Acid]  10000 nM
3. COc1cccc2c1nc1n2CC(C(C)(C)C)c2cc(C(=O)O)c(=O)[nH]c2-1 (single isomer, unassigned) [Example 27, 5-(tert-Butyl)-11-methoxy-2-oxo-1,2,5,6-tetrahydrobenzo[4,5]imidazo[1,2-h][1,7]naphthyridine-3-carboxylic Acid]  10000 nM
4. COc1ccn2c3c(nc2c1OC)-c1[nH]c(=O)c(C(=O)O)cc1C(C(C)(C)C)C3 (single isomer, unassigned) [Example 19, 5-(tert-Butyl)-10,11-dimethoxy-2-oxo-1,2,5,6-tetrahydropyrido[2′,1′:2,3]imidazo[4,5-h]quinoline-3-carboxylic Acid]  8000 nM
5. CC(C)C1Cc2cc(C(=O)O)c(=O)[nH]c2-c2nc3c(OC(F)F)cccn3c21 (single isomer, unassigned) [Example 21, 11-(Difluoromethoxy)-6-isopropyl-2-oxo-1,2,5,6-tetrahydropyrido[2′,1′:2,3]imidazo[4,5-h]quinoline-3-carboxylic Acid]  6000 nM
6. CC(C)C1Cc2c(nc3c(OC(F)F)cccn23)-c2[nH]c(=O)c(C(=O)O)cc21 (single isomer, unassigned) [Example 13, 11-(Difluoromethoxy)-5-isopropyl-2-oxo-1,2,5,6-tetrahydropyrido[2′,1′:2,3]imidazo[4,5-h]quinoline-3-carboxylic Acid]  1100 nM
7. CC(C)(C)C1Cn2c(cc3c(OC(F)F)cccc32)-c2[nH]c(=O)c(C(=O)O)c(O)c21 (single isomer, unassigned) [Example 2, 5-(tert-Butyl)-11-(difluoromethoxy)-4-hydroxy-2-oxo-1,2,5,6-tetrahydroindolo[1,2-h][1,7]naphthyridine-3-carboxylic Acid]  1000 nM
8. COc1cccn2c3c(nc12)-c1[nH]c(=O)c(C(=O)O)cc1C(C(C)(C)C)C3 (single isomer, unassigned) [Example 15, 5-(tert-Butyl)-11-methoxy-2-oxo-1,2,5,6-tetrahydropyrido[2′,1′:2,3]imidazo[4,5-h]quinoline-3-carboxylic Acid]  1000 nM
9. CC(C)(C)C1Cc2c(nc3c(OC(F)F)cccn23)-c2[nH]c(=O)c(C(=O)O)c(O)c21 (single isomer, unassigned) [Example 8, 5-(tert-Butyl)-11-(difluoromethoxy)-4-hydroxy-2-oxo-1,2,5,6-tetrahydropyrido[2′,1′:2,3]imidazo[4,5-h]quinoline-3-carboxylic Acid]  220 nM
10. COc1ccn2c3c(nc2c1OC)-c1c(cc(C(=O)O)c(=O)n1C)C(C(C)(C)C)C3 (single isomer, unassigned) [Example 22, 5-(tert-Butyl)-10,11-dimethoxy-1-methyl-2-oxo-1,2,5,6-tetrahydropyrido[2′,1′:2,3]imidazo[4,5-h]quinoline-3-carboxylic Acid]  110 nM
11. CC(C)C1Cc2cc(C(=O)O)c(=O)[nH]c2-c2nc3c(OC(F)F)cccn3c21 (single isomer, unassigned) [Example 20, 11-(Difluoromethoxy)-6-isopropyl-2-oxo-1,2,5,6-tetrahydropyrido[2′,1′:2,3]imidazo[4,5-h]quinoline-3-carboxylic Acid]  99 nM
12. COc1cccc2c1nc1n2CC(C(C)(C)C)c2cc(C(=O)O)c(=O)[nH]c2-1 (single isomer, unassigned) [Example 28, 5-(tert-Butyl)-11-methoxy-2-oxo-1,2,5,6-tetrahydrobenzo[4,5]imidazo[1,2-h][1,7]naphthyridine-3-carboxylic Acid]  93 nM
13. COc1cccn2c3c(nc12)-c1[nH]c(=O)c(C(=O)O)cc1C(C(C)C)C3 (single isomer, unassigned) [Example 16, 5-Isopropyl-11-methoxy-2-oxo-1,2,5,6-tetrahydropyrido[2′,1′:2,3]imidazo[4,5-h]quinoline-3-carboxylic Acid]  48 nM
14. CC(C)C1Cc2c(nc3c(OC(F)F)cccn23)-c2[nH]c(=O)c(C(=O)O)cc21 (single isomer, unassigned) [Example 12, 11-(Difluoromethoxy)-5-isopropyl-2-oxo-1,2,5,6-tetrahydropyrido[2′,1′:2,3]imidazo[4,5-h]quinoline-3-carboxylic Acid]  18 nM
15. COc1cccn2c3c(nc12)-c1[nH]c(=O)c(C(=O)O)cc1C(C(C)(C)C)C3 (single isomer, unassigned) [Example 14, 5-(tert-Butyl)-11-methoxy-2-oxo-1,2,5,6-tetrahydropyrido[2′,1′:2,3]imidazo[4,5-h]quinoline-3-carboxylic Acid]  12 nM
16. COc1ccn2c3c(nc2c1OC)-c1c(cc(C(=O)O)c(=O)n1C)C(C(C)(C)C)C3 (single isomer, unassigned) [Example 23, 5-(tert-butyl)-10,11-dimethoxy-1-methyl-2-oxo-1,2,5,6-tetrahydropyrido[2′,1′:2,3]imidazo[4,5-h]quinoline-3-carboxylic Acid]  11 nM
17. CC(C)(C)C1Cn2c(cc3c(OC(F)F)cccc32)-c2[nH]c(=O)c(C(=O)O)c(O)c21 (single isomer, unassigned) [Example 3, 5-(tert-Butyl)-11-(difluoromethoxy)-4-hydroxy-2-oxo-1,2,5,6-tetrahydroindolo[1,2-h][1,7]naphthyridine-3-carboxylic Acid]  5 nM
18. COc1ccn2c3c(nc2c1OC)-c1[nH]c(=O)c(C(=O)O)cc1C(C(C)(C)C)C3 (single isomer, unassigned) [Example 18, 5-(tert-Butyl)-10,11-dimethoxy-2-oxo-1,2,5,6-tetrahydropyrido[2′,1′:2,3]imidazo[4,5-h]quinoline-3-carboxylic Acid]  5 nM
19. CC(C)(C)C1Cc2c(nc3c(OC(F)F)cccn23)-c2[nH]c(=O)c(C(=O)O)cc21 (single isomer, unassigned) [Example 10, 5-(tert-Butyl)-11-(difluoromethoxy)-2-oxo-1,2,5,6-tetrahydropyrido[2′,1′:2,3]imidazo[4,5-h]quinoline-3-carboxylic Acid]  3 nM
20. CC(C)(C)C1Cc2c(nc3c(OC(F)F)cccn23)-c2[nH]c(=O)c(C(=O)O)c(O)c21 (single isomer, unassigned) [Example 7, 5-(tert-Butyl)-11-(difluoromethoxy)-4-hydroxy-2-oxo-1,2,5,6-tetrahydropyrido[2′,1′:2,3]imidazo[4,5-h]quinoline-3-carboxylic Acid]  2 nM
21. CN1CCCc2c3c(cc(OC(F)F)c21)-c1[nH]c(=O)c(C(=O)O)cc1C(C(C)(C)C)C3 (single isomer, unassigned) [Example 32, 6-(tert-Butyl)-12-(difluoromethoxy)-1-methyl-9-oxo-1,2,3,4,5,6,9,10-octahydroquinolino[7,8-f]quinoline-8-carboxylic Acid]  2 nM
